Where two headings read alike, the source gives them in different places.
What was measured:
THP-1 cells = assay: Measurement of IL-1β production, hTRF protocol (second alternative procedure), THP-1 cells; assay type: cell-based, human; conditions: human, read-out: NLRP3 hILIB EC50
Method: Measurement of IL-1β Production—hTRF Protocol (Second Alternative Procedure)
Serial dilutions of compounds in DMSO were added to low volume 384 well plates at 100 nl/well using an ECHO 550 acoustic dispenser (Labcyte) to achieve final starting concentration of 10 μM in assay.
THP-1 cells in RPMI (Gibco, 11875) media with 10% FBS at a density of 1×10^6 cell/ml in a T175 flask were treated with a final concentration of phorbol 12-myristate 13-acetate (PMA) (Sigma, P1585) of 50 ng/ml overnight at 37° C. at 5% CO2 for differentiation. Cells were harvested the next day after rinsing well with dPBS using 0.5% trypsin. A cell solution was prepared of 1×10^6 cells/ml for 50,000 cells in 50 μl/well in RPMI media with 2% FBS. Cells were plated using a multichannel pipette onto the compound dilutions in Greiner, 384 well, black clear bottom tissue culture treated plates (781090). The plates were incubated in 37° C. incubator at 5% CO2 for 2 hours.
After the 2 hour incubation, the cell plates were spun in the centrifuge for 5 minutes at 1200 rpm. Using the Felix (CyBio), 8 μl of the supernatant was transferred to 384 well, low volume, white proxy plates. (Perkin Elmer, 6008230). A human IL1beta hTRF kit was used to analyze the supernatant (CISBIO, 62HIL1BPEG). The kit instructions were followed for preparing the IL1Beta standard curve and then the antibodies from the kit were diluted 1:40 rather than 1:20 as kit instructed. Once combined, the antibodies were added across the plates, 5 μl/well. The plates were sealed and incubated at 4° C. overnight. The plates were then read on the Perkin Elmer EnVision at 665/615 nm using the hTRF laser.

TLR7 = molecular target: T1, TLR7 (Homo sapiens, UniProt Q9NYK1); assay: In vitro human TLR7 binding reporter assay (HEK-Blue, NF-kB/AP1-inducible SEAP); assay type: cell-based; conditions: activity range class, read-out: TLR7 Agonist EC50
T1 construct: human HEK-Blue cells co-expressing a TLR7 or TLR8 gene
T1 sequence (Q9NYK1 27-1049): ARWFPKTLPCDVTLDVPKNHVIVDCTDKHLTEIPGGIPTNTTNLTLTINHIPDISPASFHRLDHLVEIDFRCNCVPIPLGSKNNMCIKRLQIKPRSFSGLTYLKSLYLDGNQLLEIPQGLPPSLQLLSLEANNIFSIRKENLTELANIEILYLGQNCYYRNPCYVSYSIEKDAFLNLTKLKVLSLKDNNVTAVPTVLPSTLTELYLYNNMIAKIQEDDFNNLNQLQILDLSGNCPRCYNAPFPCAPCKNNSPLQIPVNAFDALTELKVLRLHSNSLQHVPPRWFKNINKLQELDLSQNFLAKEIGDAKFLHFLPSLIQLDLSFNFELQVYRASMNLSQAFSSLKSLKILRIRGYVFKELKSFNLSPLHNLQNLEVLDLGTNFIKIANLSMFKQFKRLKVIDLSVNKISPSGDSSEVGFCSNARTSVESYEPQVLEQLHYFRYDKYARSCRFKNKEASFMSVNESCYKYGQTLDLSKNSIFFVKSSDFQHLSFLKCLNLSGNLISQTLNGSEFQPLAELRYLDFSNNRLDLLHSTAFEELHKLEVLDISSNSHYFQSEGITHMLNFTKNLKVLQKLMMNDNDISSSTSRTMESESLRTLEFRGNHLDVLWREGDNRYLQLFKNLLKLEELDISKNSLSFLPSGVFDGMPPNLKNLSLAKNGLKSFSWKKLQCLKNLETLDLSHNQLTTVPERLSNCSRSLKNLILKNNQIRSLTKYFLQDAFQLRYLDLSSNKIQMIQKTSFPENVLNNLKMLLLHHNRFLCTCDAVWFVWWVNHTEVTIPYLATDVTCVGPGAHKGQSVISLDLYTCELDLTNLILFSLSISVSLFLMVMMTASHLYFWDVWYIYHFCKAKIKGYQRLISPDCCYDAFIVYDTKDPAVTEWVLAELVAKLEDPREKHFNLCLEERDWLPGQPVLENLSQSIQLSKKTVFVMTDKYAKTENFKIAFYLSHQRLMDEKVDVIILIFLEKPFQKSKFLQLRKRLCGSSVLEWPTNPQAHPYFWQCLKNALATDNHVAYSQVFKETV
Method: (§1) In Vitro Human TLR7 and TLR8 Binding Reporter Assays
(§2) Logarithmically-growing human HEK-Blue cells co-expressing a TLR7 or TLR8 gene and a NF-kB/AP1-inducible SEAP (secreted embryonic alkaline phosphatase; Invivogen, San Diego, CA) reporter gene are added to individual wells of a 384-well plate (15,000 cells per 20 μL per well) and maintained for 24 h at 37° C., 5% CO2. Test compounds or DMSO are distributed to separate wells the next day using acoustic liquid handling technology (100 nL per well) and cells are subsequently incubated for 18 h at 37° C., 5% CO2. Cellular SEAP production is measured using an Envision plate reader instrument thirty minutes after adding freshly-made Quanti-Blue reagent (prepared by following manufacturer instructions; Invivogen, San Diego, CA) to the HEK-Blue TLR Nf-kB-SEAP cell reactions. All EC50 values (half-maximal effective concentration) are determined using proprietary data analysis software. Normalized EC50 value=absolute value determined by setting 100% Ymax using a reference standard RLU (relative light unit) values from cells treated with 50 μM of the reference standard.

TLR8 = molecular target: T2, TLR8 (Homo sapiens, UniProt Q9NR97); assay: In vitro human TLR8 binding reporter assay (HEK-Blue, NF-kB/AP1-inducible SEAP); assay type: cell-based; conditions: activity range class, read-out: TLR8 Agonist EC50
T2 construct: human HEK-Blue cells co-expressing a TLR7 or TLR8 gene
T2 sequence (Q9NR97 27-1041): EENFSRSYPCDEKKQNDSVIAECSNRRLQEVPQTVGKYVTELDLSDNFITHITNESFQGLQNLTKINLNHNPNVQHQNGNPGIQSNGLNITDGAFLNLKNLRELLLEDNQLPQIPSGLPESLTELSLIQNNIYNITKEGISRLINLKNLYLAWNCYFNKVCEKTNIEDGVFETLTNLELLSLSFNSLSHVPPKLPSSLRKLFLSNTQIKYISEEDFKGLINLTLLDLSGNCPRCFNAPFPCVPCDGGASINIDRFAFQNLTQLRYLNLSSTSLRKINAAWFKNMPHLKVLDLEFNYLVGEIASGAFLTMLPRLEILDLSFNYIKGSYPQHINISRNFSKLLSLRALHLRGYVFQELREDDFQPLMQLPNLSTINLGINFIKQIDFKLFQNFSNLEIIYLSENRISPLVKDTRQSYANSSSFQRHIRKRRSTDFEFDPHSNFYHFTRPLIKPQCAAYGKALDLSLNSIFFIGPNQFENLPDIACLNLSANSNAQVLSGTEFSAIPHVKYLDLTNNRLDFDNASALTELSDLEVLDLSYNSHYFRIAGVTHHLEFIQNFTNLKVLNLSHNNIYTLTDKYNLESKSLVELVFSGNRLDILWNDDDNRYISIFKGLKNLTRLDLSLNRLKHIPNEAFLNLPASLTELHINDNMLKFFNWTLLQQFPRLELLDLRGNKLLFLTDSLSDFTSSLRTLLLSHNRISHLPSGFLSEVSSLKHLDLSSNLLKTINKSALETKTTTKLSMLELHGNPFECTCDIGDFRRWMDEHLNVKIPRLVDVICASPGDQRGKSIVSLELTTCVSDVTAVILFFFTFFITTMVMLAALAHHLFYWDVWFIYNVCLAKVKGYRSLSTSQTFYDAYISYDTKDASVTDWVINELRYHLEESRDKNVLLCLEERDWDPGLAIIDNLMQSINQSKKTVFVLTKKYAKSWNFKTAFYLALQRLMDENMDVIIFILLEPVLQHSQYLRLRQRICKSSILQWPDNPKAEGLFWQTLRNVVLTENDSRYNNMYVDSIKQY
Method: as §1, §2

[1] = Homo sapiens, THP-1, IL-1β production

Row | Compound | EC50 (THP-1 cells; IL-1β production) [µM] | EC50 (TLR7) [µM] | EC50 (TLR8) [µM] | EC50 (THP-1 cells; [1]) [µM]
1 | Nc1nc2cc(-c3cc[nH]n3)ccc2c2nn(CC3CCOC3)cc12 (single isomer, unassigned) [Example 328] | 1.35 | > 100 | > 100 | 
2 | COCC(C)n1cc2c(N)nc3cc(-c4cc[nH]n4)ccc3c2n1 (single isomer, unassigned) [Example 337] |  | > 100 | > 100 | 0.22
3 | COCC(C)n1cc2c(N)nc3cc(-c4cc[nH]n4)ccc3c2n1 (single isomer, unassigned) [Example 338] | 0.39 | > 100 | > 100 | 
4 | Nc1nc2cc(-c3cc[nH]n3)ccc2c2nn(C3CCCC3O)cc12 (single isomer, unassigned) [Example 340] | 0.62 | > 100 | > 100 | 
5 | Nc1nc2cc(-c3cc[nH]n3)ccc2c2nn(C3CCC(O)C3)cc12 (single isomer, unassigned) [Example 341] |  | > 100 | > 100 | 0.43
6 | Nc1nc2cc(-c3cc[nH]n3)ccc2c2nn(C3CCC(O)C3)cc12 (single isomer, unassigned) [Example 342] | 0.34 | > 100 | > 100 | 
7 | CC1(O)CCCC1n1cc2c(N)nc3cc(-c4cc[nH]n4)ccc3c2n1 (single isomer, unassigned) [Example 344] |  | > 100 | > 100 | 1.02
8 | CC1(O)CCCC1n1cc2c(N)nc3cc(-c4cc[nH]n4)ccc3c2n1 (single isomer, unassigned) [Example 345] | 2.03 | > 100 | > 100 | 
9 | COC(C)Cn1cc2c(N)nc3cc(-c4cc[nH]n4)ccc3c2n1 (single isomer, unassigned) [Example 346] | 0.65 | > 100 | > 100 | 
10 | COC(C)Cn1cc2c(N)nc3cc(-c4cc[nH]n4)ccc3c2n1 (single isomer, unassigned) [Example 347] | 0.3 | > 100 | > 100 | 
11 | Nc1nc2cc(-c3cc[nH]n3)ccc2c2nn(CC(O)CF)cc12 (single isomer, unassigned) [Example 376] |  | > 100 | > 100 | 0.4
12 | Nc1nc2cc(-c3cc[nH]n3)ccc2c2nn(CC(O)CF)cc12 (single isomer, unassigned) [Example 377] | 0.45 | > 100 | > 100 | 
13 | Nc1nc2cc(-c3cc[nH]n3)ccc2c2nn(CC(O)CC(F)(F)F)cc12 (single isomer, unassigned) [Example 378] |  | > 100 | > 100 | 0.64
14 | Nc1nc2cc(-c3cc[nH]n3)ccc2c2nn(CC(O)CC(F)(F)F)cc12 (single isomer, unassigned) [Example 379] | 0.32 | > 100 | > 100 | 
15 | Nc1nc2cc(-c3cc[nH]n3)ccc2c2cn(CCCO)nc12 [Example 1, 3-[4-amino-7-(1H-pyrazol-3-yl)-2H-pyrazolo[3,4-c]quinolin-2-yl]propan-1-ol] |  | > 100 | > 100 | 0.45
16 | Nc1nc2cc(-c3cc[nH]n3)ccc2c2cn(CCCOc3ccccc3)nc12 [Example 2, 2-(3-phenoxypropyl)-7-(1H-pyrazol-3-yl)-2H-pyrazolo[3,4-c]quinolin-4-amine] |  | 20 to 100 | 20 to 100 | 0.43
17 | Nc1nc2cc(-c3cc[nH]n3)ccc2c2cn(CCCOc3ccccn3)nc12 [Example 3, 7-(1H-pyrazol-3-yl)-2-[3-(pyridin-2-yloxy)propyl]-2H-pyrazolo[3,4-c]quinolin-4-amine] |  | > 100 | > 100 | 0.56
18 | Nc1nc2cc(-c3cc[nH]n3)ccc2c2cn(CCCn3ccccc3=O)nc12 [Example 4, 1-{3-[4-amino-7-(1H-pyrazol-3-yl)-2H-pyrazolo[3,4-c]quinolin-2-yl]propyl}-1,2-dihydropyridin-2-one] |  | > 100 | > 100 | 16.8
19 | Nc1nc2cc(-c3cc[nH]n3)ccc2c2cn(CCCOc3cccc(F)c3)nc12 [Example 5] |  | > 100 | > 100 | 0.35
20 | Nc1nc2cc(-c3cc[nH]n3)ccc2c2cn(CCCOc3ccc(F)cc3)nc12 [Example 6] |  | > 100 | > 100 | 0.56
21 | Nc1nc2cc(-c3cc[nH]n3)ccc2c2cn(CCCOc3ccccc3F)nc12 [Example 7] |  | > 100 | > 100 | 0.42
22 | Cc1cccc(OCCCn2cc3c(n2)c(N)nc2cc(-c4cc[nH]n4)ccc23)c1 [Example 8] |  | > 100 | > 100 | 0.89
23 | Nc1nc2cc(-c3cc[nH]n3)ccc2c2cn(CCCOc3cccnc3)nc12 [Example 9] |  | > 100 | > 100 | 0.57

Reference: patent US12037344B2, “NLRP3 modulators” (INNATE TUMOR IMMUNITY, INC., priority 2018, dated 2024)
